Data on 25 compounds can be found in patent US20100144755A1 (Glaxo Group Limited, priority 2006, published 2010).

The subject of the first assay is influx of neutrophils to the lung in LPS-challenged rats. The experiment in a line: Rat LPS neutrophilia model. In kind it is in vivo. Conditions: LPS aerosol, intratracheal dosing, in at least one of the range of conditions tested, significance p<0.05. In a few lines: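 Compound given intratracheally (200 ul suspension or dry powder via microsprayer) to isoflurane-anesthetized rats 15 min–24 h before 15 min LPS aerosol (100 ug/ml). Lavage 4 h post-challenge; neutrophils from differential counts. % inhibition versus no-compound controls at a given concentration and pretreat time.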
Consider `CCCCNC(=O)c1ccc(C)c(-c2nc(N3CCC(N4CCC(C)CC4)CC3)nc3c2ccc(=O)n3-c2c(F)cccc2F)c1` [Example 167, N-butyl-3-[8-(2,6-difluorophenyl)-2-(4-methyl-1,4′-bipiperidin-1′-yl)-7-oxo-7,8-dihydropyrido[2,3-d]pyrimidin-4-yl]-4-methylbenzamide], for which the inhibition of neutrophilia entry was “statistically significant inhibition”.

Consider `Cc1ccc(C(=O)NCC(C)C)cc1-c1nc(N2CCC(N3CCC(C)CC3)CC2)nc2c1ccc(=O)n2-c1c(F)cccc1F` [Example 168, 3-[8-(2,6-difluorophenyl)-2-(4-methyl-1,4′-bipiperidin-1′-yl)-7-oxo-7,8-dihydropyrido[2,3-d]pyrimidin-4-yl]-4-methyl-N-(2-methylpropyl)benzamide], for which the inhibition of neutrophilia entry is “inactive”.

Take `Cc1ccc(C(=O)NC2CCCC2)cc1-c1nc(N2CCC(N3CCC(C)CC3)CC2)nc2c1ccc(=O)n2-c1c(F)cccc1F` [Example 169, N-cyclopentyl-3-[8-(2,6-difluorophenyl)-2-(4-methyl-1,4′-bipiperidin-1′-yl)-7-oxo-7,8-dihydropyrido[2,3-d]pyrimidin-4-yl]-4-methylbenzamide]: the inhibition of neutrophilia result is given as “statistically nonsignificant inhibition”.

For the compound `Cc1ccc(C(=O)NCC(F)(F)F)cc1-c1nc(N2CCC(N3CCC(C)CC3)CC2)nc2c1ccc(=O)n2-c1c(F)cccc1F` [Example 172, 3-[8-(2,6-difluorophenyl)-2-(4-methyl-1,4′-bipiperidin-1′-yl)-7-oxo-7,8-dihydropyrido[2,3-d]pyrimidin-4-yl]-4-methyl-N-(2,2,2-trifluoroethyl)benzamide], the inhibition of neutrophilia result is “inactive”.

Regarding `CCNC(=O)c1ccc(C)c(-c2nc(N3CCC(N4CCC(C)CC4)CC3)nc3c2ccc(=O)n3-c2c(F)cccc2F)c1` [Example 173, 3-[8-(2,6-difluorophenyl)-2-(4-methyl-1,4′-bipiperidin-1′-yl)-7-oxo-7,8-dihydropyrido[2,3-d]pyrimidin-4-yl]-N-ethyl-4-methylbenzamide], the inhibition of neutrophilia entry is listed as “statistically significant inhibition”.

In the case of `Cc1ccc(C(=O)Nc2ccc(F)cc2)cc1-c1nc(N2CCC(N3CCC(C)CC3)CC2)nc2c1ccc(=O)n2-c1c(F)cccc1F` [Example 174, 3-[8-(2,6-difluorophenyl)-2-(4-methyl-1,4′-bipiperidin-1′-yl)-7-oxo-7,8-dihydropyrido[2,3-d]pyrimidin-4-yl]-N-(4-fluorophenyl)-4-methylbenzamide], the inhibition of neutrophilia result is “inactive”.

For the compound `Cc1ccc(C(=O)NC2CCC2)cc1-c1nc(N2CCC(N3CCC(C)CC3)CC2)nc2c1ccc(=O)n2-c1c(F)cccc1F` [Example 175, N-cyclobutyl-3-[8-(2,6-difluorophenyl)-2-(4-methyl-1,4′-bipiperidin-1′-yl)-7-oxo-7,8-dihydropyrido[2,3-d]pyrimidin-4-yl]-4-methylbenzamide], the inhibition of neutrophilia entry is “inactive”.

Regarding `Cc1ccc(C(=O)NC2CC2)cc1-c1nc(N2CCC(N3CCC(C)CC3)CC2)nc2c1ccc(=O)n2-c1c(F)cccc1F` [Example 178, N-cyclopropyl-3-[8-(2,6-difluorophenyl)-2-(4-methyl-1,4′-bipiperidin-1′-yl)-7-oxo-7,8-dihydropyrido[2,3-d]pyrimidin-4-yl]-4-methylbenzamide], the inhibition of neutrophilia result is given as “statistically nonsignificant inhibition”.

Take `CCCNC(=O)c1cc(F)c(C)c(-c2nc(NCCCN(CC)CC)nc3c2ccc(=O)n3-c2c(F)cccc2F)c1` [Example 181, 3-[2-{[3-(diethylamino)propyl]amino}-8-(2,6-difluorophenyl)-7-oxo-7,8-dihydropyrido[2,3-d]pyrimidin-4-yl]-5-fluoro-4-methyl-N-propylbenzamide]: the inhibition of neutrophilia entry was “statistically nonsignificant inhibition”.

For `CCN(CC)CCCNc1nc(-c2cc(C(=O)NC3CC3)cc(F)c2C)c2ccc(=O)n(-c3c(F)cccc3F)c2n1` [Example 185, N-cyclopropyl-3-[2-{[3-(diethylamino)propyl]amino}-8-(2,6-difluorophenyl)-7-oxo-7,8-dihydropyrido[2,3-d]pyrimidin-4-yl]-5-fluoro-4-methylbenzamide], the inhibition of neutrophilia entry is recorded as “statistically nonsignificant inhibition”.

The test system of a further assay is TNF-stimulated IL8 production by human neutrophils. The assay is described as follows: TNF-stimulated IL-8 production from human neutrophils.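 Also: IL-8 in cell-free supernatant quantified by sandwich ELISA, inhibition calculated against a compound-free control.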 In kind it is cell-based. The note with it: Neutrophil, TNF 100 ng/ml, about 20 hrs, bounds reflect the top concentration screened, for 202(c) and 120 a range over multiple runs with ends given as 'greater than'.
Procedure: TNF-Stimulated IL-8 Production from Human Neutrophils
The effect of test compounds on TNF-stimulated IL8 production by human neutrophils is measured as follows. Neutrophils are prepared from blood obtained from consenting donors, using standard methods. Blood is collected in heparinized syringes and layered over histopaque (30 ml/20 ml). Following centrifugation, the red cell pellet is resuspended in PBS and purified over a dextran gradient. […] Cells are added (0.5-1 ml) to 48 well plates already containing compound at 1000× final concentration in neat DMSO or 10% DMSO in RPMI1640 with 10% FBS. TNF (final concentration 100 ng/ml) is used as the stimulus. Cells incubated for approximately 20 hrs at 37° C., 5% CO2. Levels of IL-8 in the cell free supernatant are determined by sandwich ELISA, and inhibition relative to a control with DMPO but no compound is calculated.
As to `Cc1ccc(NC(=O)c2cccs2)cc1-c1nc(S(C)(=O)=O)nc2c1ccc(=O)n2-c1c(F)cccc1F` [7(c), N-{3-[8-(2,6-difluorophenyl)-2-(methylsulfonyl)-7-oxo-7,8-dihydropyrido[2,3-d]pyrimidin-4-yl]-4-methylphenyl}-2-thiophenecarboxamide], the IC50 was more than 100 nM.

For the compound `Cc1ccc(NC(=O)c2cccs2)cc1-c1nc(NC2CCNCC2)nc2c1ccc(=O)n2-c1c(F)cccc1F` [7(d), N-{3-[8-(2,6-difluorophenyl)-7-oxo-2-(4-piperidinylamino)-7,8-dihydropyrido[2,3-d]pyrimidin-4-yl]-4-methylphenyl}-2-thiophenecarboxamide], the IC50 was more than 100 nM.

Compound `Cc1cc(C(=O)Nc2ccc(C)c(-c3nc(NC4CCNCC4)nc4c3ccc(=O)n4-c3c(F)cccc3F)c2)ccc1F` [12(c), N-{3-[8-(2,6-difluorophenyl)-7-oxo-2-(4-piperidinylamino)-7,8-dihydropyrido[2,3-d]pyrimidin-4-yl]-4-methylphenyl}-4-fluoro-3-methylbenzamide] returned an IC50 of more than 100 nM.

Consider `Cc1ccc(NC(=O)c2ccc(Cl)nc2)cc1-c1nc(NC2CCNCC2)nc2c1ccc(=O)n2-c1c(F)cccc1F` [14(c), 6-chloro-N-{3-[8-(2,6-difluorophenyl)-7-oxo-2-(4-piperidinylamino)-7,8-dihydropyrido[2,3-d]pyrimidin-4-yl]-4-methylphenyl}-3-pyridinecarboxamide], for which the IC50 was more than 100 nM.

In the case of `Cc1ccc(C(=O)O)cc1-c1nc(NC(CO)CO)nc2c1ccc(=O)n2-c1c(F)cccc1F` [80(a), 3-(8-(2,6-difluorophenyl)-2-{[2-hydroxy-1-(hydroxymethyl)-ethyl]amino}-7-oxo-7,8-dihydropyrido[2,3-d]pyrimidin-4-yl)-4-methylbenzoic acid], the IC50 is more than 100 nM.

`Cc1ccc(C(=O)NCc2ccccc2)cc1-c1nc([S+](C)[O-])nc2c1ccc(=O)n2-c1c(F)cccc1F` (stereo not shown) [116(b), 3-[8-(2,6-difluorophenyl)-2-(methylsulfinyl)-7-oxo-7,8-dihydropyrido[2,3-d]pyrimidin-4-yl]-4-methyl-N-(phenylmethyl)benzamide] returned an IC50 of more than 100 nM.

As for `CCN(CC)CCCNc1nc(-c2cc(C(=O)O)ccc2C)c2ccc(=O)n(-c3c(F)cccc3F)c2n1` [118(a), 3-[2-{[3-(diethylamino)propyl]amino}-8-(2,6-difluorophenyl)-7-oxo-7,8-dihydropyrido[2,3-d]pyrimidin-4-yl]-4-methylbenzoic acid], the IC50 was more than 100 nM.

`Cc1ccc(C(=O)O)cc1-c1nc(N2CCC(N3CCC(C)CC3)CC2)nc2c1ccc(=O)n2-c1c(F)cccc1F` [163(b), 3-[8-(2,6-difluorophenyl)-2-(4-methyl-1,4′-bipiperidin-1′-yl)-7-oxo-7,8-dihydropyrido[2,3-d]pyrimidin-4-yl]-4-methylbenzoic acid] had an IC50 of more than 100 nM.

Compound `CCCNC(=O)c1ccc(-c2nc(NCCCN(CC)CC)nc3c2ccc(=O)n3-c2c(F)cccc2F)cc1` [188(b), 4-[2-{[3-(diethylamino)propyl]amino}-8-(2,6-difluorophenyl)-7-oxo-7,8-dihydropyrido[2,3-d]pyrimidin-4-yl]-N-propylbenzamide] yielded an IC50 of more than 100 nM.

On to `CCN(CC)CCCNc1nc(-c2cccc(C(=O)O)c2)c2ccc(=O)n(-c3c(F)cccc3F)c2n1` [193(a), 3-[2-{[3-(diethylamino)propyl]amino}-8-(2,6-difluorophenyl)-7-oxo-7,8-dihydropyrido[2,3-d]pyrimidin-4-yl]benzoic acid], for which the IC50 was more than 100 nM.

`Cc1ccc(C(=O)NCCc2ccccc2)cc1-c1nc(NCCN(C)C(=O)OC(C)(C)C)nc2c1ccc(=O)n2-c1c(F)cccc1F` [202(c), 1,1-dimethylethyl(2-{[8-(2,6-difluorophenyl)-4-(2-methyl-5-{[(2-phenylethyl)amino]carbonyl}phenyl)-7-oxo-7,8-dihydropyrido[2,3-d]pyrimidin-2-yl]amino}ethyl)methylcarbamate] gave an IC50 of 10 to 100 nM.

`Cc1ccc(NC(=O)c2cccs2)cc1-c1nc(NCc2ncc[nH]2)nc2c1ccc(=O)n2-c1c(F)cccc1F` [Example 10, N-(3-{8-(2,6-difluorophenyl)-2-[(1H-imidazol-2-ylmethyl)amino]-7-oxo-7,8-dihydropyrido[2,3-d]pyrimidin-4-yl}-4-methylphenyl)-2-thiophenecarboxamide]: the IC50 was more than 100 nM.

Take `CNCCNc1nc(-c2cc(NC(=O)c3cccs3)ccc2C)c2ccc(=O)n(-c3c(F)cccc3F)c2n1` [Example 11, N-[3-(8-(2,6-difluorophenyl)-2-{[2-(methylamino)ethyl]amino}-7-oxo-7,8-dihydropyrido[2,3-d]pyrimidin-4-yl)-4-methylphenyl]-2-thiophenecarboxamide]: the IC50 is more than 100 nM.

`Cc1ccc(NC(=O)c2ccc(Cl)nc2)cc1-c1nc(N2CCC(N)CC2)nc2c1ccc(=O)n2-c1c(F)cccc1F` [Example 15, N-{3-[2-(4-amino-1-piperidinyl)-8-(2,6-difluorophenyl)-7-oxo-7,8-dihydropyrido[2,3-d]pyrimidin-4-yl]-4-methylphenyl}-6-chloro-3-pyridinecarboxamide]: the IC50 is more than 100 nM.

In turn, `Cc1ccc(NC(=O)c2ccc(Cl)nc2)cc1-c1nc(NC2CC(C)(C)NC(C)(C)C2)nc2c1ccc(=O)n2-c1c(F)cccc1F` [Example 16, 6-chloro-N-(3-{8-(2,6-difluorophenyl)-7-oxo-2-[(2,2,6,6-tetramethyl-4-piperidinyl)amino]-7,8-dihydropyrido[2,3-d]pyrimidin-4-yl}-4-methylphenyl]-3-pyridinecarboxamide] returned an IC50 of more than 100 nM.

The term IC50 denotes the concentration that inhibits the measured activity by half. Read a low IC50 as higher potency.
